In US20240197700A1, “Methods and Compositions for Treating Lysosomal Storage Disorders” (Sanford Health, priority 2021, published 2024):

Columns and labels:
NCL MEFs = experiment: LysoTracker signal in Batten disease mouse embryonic fibroblasts; type: cell-based
Procedure: Wild type (WT) and mutant cells were treated with vehicle or LM11A-31 (100 nM, 1 μM, 10 μM). Cells were plated on day 0 and dosed with drug-containing media on DIV3 and DIV5. Concentrations of drug are shown on the x-axis above each image column; genotypes are shown to the left of each row. […] Increasing concentrations of LM11A-31 are shown along the x-axis.
Specific experimental details are included in figure legends. In general, after collection and preparation, MEFs and PNCs were dosed with vehicle or semaglutide (10 nM, 100 nM. or 1 μM) on DIV3 and DIV5. On DIV7, cells were exposed to the following dyes: Hoechst 33342 (1:1000 dilution), LysoTracker™ Red DND-99 (1:10,000 dilution), fixed. and imaged. Mice were injected three times per week with vehicle or semaglutide (2.571 μg/mouse, 25.71 μg/mouse) beginning at wean. Body weight was measured at 4, 6, 8, 12, and 16 weeks of age. At 16 weeks of age, Cln3^Δex7/8 mice along with age matched wildtype control mice were CO2 euthanized and intracardially perfused with PBS. Brains were collected and placed on a 1 mm sagittal brain block. Brains were sliced at the midline and 3 mm right of the midline. The 3 mm sagittal piece was flash frozen with −50° C. isopentane and then sectioned on a cryostat at 16 μm and placed on slides. For ASM measurements, slides were counterstained with DAPI. The other hemisphere was fixed in 4% PFA and sectioned at 50 microns on a vibratome. Immunohistochemistry was performed on free-floating sections. For SubC, GFAP, and CD68 immunolabeling, primary antibodies included mitochondrial anti-ATP synthase subunit C (Abcam, ab181243; 1:1000), anti-GFAP (Dako, Z0334; 1:5000), anti-CD68 (AbD Serotec, MCA1957; 1:2000), and secondary antibodies included anti-rabbit biotinylated (Vector Labs, BA-1000 1:1000) and anti-rat (Vector Labs, BA-9400 1:1000). Coverslips were mounted on slides using antifade-mounting media and were stored in the dark before imaging. ASM slides were imaged on a Nikon ECLIPSE™ Ni-E upright microscope with a CoolSNAP™ DYNO camera. Images were extracted from S1BF of the somatosensory cortex, CA3 of the hippocampus, and the VPM/VPL of the thalamus, with multiple images taken of multiple tissues from each animal. IHC slides were imaged and analyzed using an Aperio Digital Pathology Slide Scanner (AT2) and associated software. Images were extracted from the S1BF of the somatosensory cortex, the CA3 of the hippocampus, and the VPM/VPL of the thalamus.
The glucagon-like peptide-1 (GLP-1) analogue, semaglutide is an FDA approved type II diabetes drug. It has been shown in previous reports that GLP1 receptor (GLP1R) agonists decrease the release of inflammatory cytokines by modulating microglial activity, but existing studies have not examined any activity on lysosome-related pathways. To test whether GLP1R agonism would reduce Batten disease pathology, we tested semaglutide in Batten disease cell models (FIGS. 18-19). Wild type (WT) and mutant mouse embryonic fibroblasts (MEFs) were treated with vehicle or semaglutide (10 nM, 100 nM, 1 μM; see FIG. 18). Cells were plated on in vitro day 0 and dosed with drug-containing media on DIV3 and DIV5. Analysis occurred on DIV7. Concentrations of drug are shown on the x-axis above each image column; genotypes are shown to the left of each row. […] Increasing concentrations of semaglutide are shown along the x-axis. […] Treatment with semaglutide (10 nM, 100 nM, 1 μM) had no impact on the accumulation of autofluorescent storage material (ASM) in Cln1^R151X, Cln2^R207X, Cln3^Δex7/8, Cln6^nclf, and Cln8^mnd MEFs (FIG. 18B).

NCL PNCs = experiment: Autofluorescent storage material (ASM) in Batten disease primary neuronal cultures; type: cell-based, mouse
Procedure: Specific experimental details are included in figure legends. […] On DIV7, cells were treated with the following dyes: Hoechst 33342 (1:1000 dilution), LysoTrackerT™ Red DND-99 (1:10,000 dilution), fixed, and imaged. Mice were given vehicle or AF38469 (78.125 μg/ml, 3.125 μg/ml, 0.3125 μg/ml or 0.03125 μg/ml equating approximately to 250 μg/mouse/day, 10 μg/mouse/day, 1 μg/mouse/day, and […], respectively, given a mouse's daily water intake of approximately 3.2 ml per day) in drinking water beginning at wean. Body weight was measured bi-weekly, and a force actimeter test was performed on Cln2^R207X mice at 10 weeks of age. Body weight was measured every month for Cln3^Δex7/8 mice. At 11 and 16 weeks of age, respectively, Cln2^R207X and Cln3^Δex7/8 mice along with age matched wild type control mice were CO2 euthanized and intracardially perfused with PBS. Brains were collected and placed on a 1 mm sagittal brain block. Brains were sliced at the midline and 3 mm right of the midline. One hemisphere was fixed in 4% PFA and sectioned at 50 microns on a vibratome. Immunohistochemistry was performed on free-floating sections. For mitochondrial ATP synthase subunit C (SubC), glial fibrillary acidic protein (GFAP), and cluster of differentiation 68 (CD68) immunolabeling, primary antibodies included anti-SubC (Abcam, ab181243; 1:1000), anti-GFAP (Dako, Z0334; 1:5000), anti-CD68 (AbD Serotec, MCA1957; 1:2000), and secondary antibodies included anti-rabbit biotinylated (Vector Labs, BA-1000 1:1000) and anti-rat (Vector Labs, BA-9400 1:1000). Coverslips were mounted on slides using antifade-mounting media and were stored in the dark before imaging. Sections were imaged and analyzed using an Aperio Digital Pathology Slide Scanner (AT2) and associated software. Images were extracted from S1BF of the somatosensory cortex and the VPM/VPL of the thalamus, with multiple images taken of multiple tissues from each animal.
• An increase in percent area or total area of positive autofluorescent storage material (ASM) signal in untreated NCL MEFs or PNCs relative to age-matched, wild type MEFs or PNCs is considered an increase in the accumulation of autofluorescent storage material, reflecting disease-related lysosomal dysfunction. • A decrease in percent area or total area of positive autofluorescent storage material signal in AF38469 treated MEFs and PNCs relative to age-matched, vehicle treated MEFs and PNCs is considered a reduction in the accumulation of autofluorescent storage material and thus a decrease in disease-related lysosomal dysfunction. • LysoTracker™ is an acidophilic dye that labels lysosomes and accumulation increases with an increase in lysosome size or number. Cell and mouse models of lysosomal storage disorders often have increased accumulation of lysosomes and therefore have a stronger LysoTracker™ signal. […]

Cc1cccc(NC(=O)c2ccc(C(F)(F)F)cc2C(=O)O)n1 [AF38469, 2-((6-methylpyridin-2-yl)carbamoyl)-5-(trifluoromethyl)benzoic acid]
LysoTracker signal (NCL MEFs; 40 nM, 400 nM, 4 μM, Cln1^R151X, Cln2^R207X, Cln6^nclf, Cln8^mnd, Cln11^−/− MEFs, DIV7, vs NCL vehicle): significantly reduced
LysoTracker signal (NCL MEFs; 40 nM, Cln3^Δex7/8 MEFs, DIV7): significantly increased
LysoTracker signal (NCL MEFs; 400 nM, Cln3^Δex7/8 MEFs, DIV7): significantly reduced
LysoTracker signal (NCL MEFs; 4 μM, Cln3^Δex7/8 MEFs, DIV7): had no impact
accumulation of autofluorescent storage material (ASM) (NCL PNCs; 40 nM, 400 nM, 4 μM, Cln1^R151X, Cln2^R207X, Cln3^Δex7/8, Cln6^nclf PNCs, DIV7): significantly reduced
ASM levels (NCL PNCs; Cln8^mnd PNCs, DIV7): significantly increased

CC[C@H](C)[C@H](N)C(=O)NCCN1CCOCC1 [LM11A-31, N-[2-(morpholin-4-yl)ethyl]-L-isoleucinamide]
LysoTracker signal (NCL MEFs; LM11A-31 100 nM, NCL MEFs): had no impact
LysoTracker signal (NCL MEFs; LM11A-31 1 μM (mid dose), Cln1^R151X, Cln2^R207X MEFs): significantly reduced
LysoTracker signal (NCL MEFs; LM11A-31 1 μM, Cln3^Δex7/8, Cln6^nclf, Cln8^mnd MEFs): decreasing trend
LysoTracker signal (NCL MEFs; LM11A-31 10 μM, Cln1^R151X and Cln2^R207X MEFs): decreasing trend
LysoTracker signal (NCL MEFs; LM11A-31 varying doses, Cln3^Δex7/8 and Cln6^nclf MEFs): decreasing trend
accumulation of autofluorescent storage material (ASM) (NCL PNCs; LM11A-31 100 nM, Cln6^nclf and Cln8^mnd PNCs): significantly reduced
accumulation of autofluorescent storage material (ASM) (NCL PNCs; LM11A-31 1 μM, Cln1^R151X PNCs): significantly reduced
accumulation of autofluorescent storage material (ASM) (NCL PNCs; LM11A-31 1 μM, Cln3^Δex7/8 PNCs): significantly reduced
accumulation of autofluorescent storage material (ASM) (NCL PNCs; LM11A-31 all treatment groups, Cln2^R207X PNCs): significantly reduced
ASM (NCL PNCs; LM11A-31 varying doses, neurons of all tested NCLs): significantly reduced

semaglutide
LysoTracker signal (NCL MEFs; semaglutide 10 nM and 100 nM, Cln8^mnd MEFs): had no impact
LysoTracker signal (NCL MEFs; semaglutide 10 nM, 100 nM, 1 μM, Cln1^R151X and Cln6^nclf MEFs): had no impact
LysoTracker signal (NCL MEFs; semaglutide 10 nM, 100 nM, 1 μM, Cln2^R207X MEFs): significantly reduced
LysoTracker signal (NCL MEFs; semaglutide 10 nM, Cln3^Δex7/8 MEFs): had no impact
LysoTracker signal (NCL MEFs; semaglutide 100 nM, 1 μM, Cln3^Δex7/8 MEFs): significantly reduced
LysoTracker signal (NCL MEFs; semaglutide 1 μM, Cln8^mnd MEFs): significantly reduced
autofluorescent storage material (ASM) signal (NCL PNCs; semaglutide 10 nM, 100 nM, 1 μM, Cln2^R207X and Cln6^nclf PNCs): significantly reduced
ASM levels (NCL PNCs; semaglutide 10 nM, 100 nM, Cln3^Δex7/8 PNCs): significantly reduced
ASM levels (NCL PNCs; semaglutide 10 nM, 1 μM, Cln1^R151X PNCs): significantly reduced
ASM levels (NCL PNCs; semaglutide 10 nM, 1 μM, Cln8^mnd PNCs): significantly reduced
ASM levels (NCL PNCs; semaglutide 100 nM, Cln1^R151X PNCs): had no impact
ASM levels (NCL PNCs; semaglutide 100 nM, Cln8^mnd PNCs): significantly elevated
ASM levels (NCL PNCs; semaglutide 1 μM, Cln3^Δex7/8 PNCs): significantly elevated
